pIC50: −log10 of the molar value. Like-named read-outs stand apart in the source and are kept apart here.
Key:
FGFR1 = FGFR1 (Homo sapiens, UniProt P11362); experiment: Kinase Profiler, residual kinase activity; assay type: biochemical; conditions: read-out: percentage of the remaining kinase activity
CDK2 = CDK2 (Homo sapiens, UniProt P24941); experiment: Kinase Profiler, residual kinase activity; assay type: biochemical; conditions: read-out: percentage of the remaining kinase activity
MAPKAPK2 = biological target: T1, MAPKAPK2 (Homo sapiens, UniProt P49137); experiment: Kinase Profiler, residual kinase activity; assay type: biochemical; conditions: read-out: percentage of the remaining kinase activity
T1 construct: purchased Research Biology Corp. (http://www.reactionbiology.com)
T1 sequence (P49137 whole entry): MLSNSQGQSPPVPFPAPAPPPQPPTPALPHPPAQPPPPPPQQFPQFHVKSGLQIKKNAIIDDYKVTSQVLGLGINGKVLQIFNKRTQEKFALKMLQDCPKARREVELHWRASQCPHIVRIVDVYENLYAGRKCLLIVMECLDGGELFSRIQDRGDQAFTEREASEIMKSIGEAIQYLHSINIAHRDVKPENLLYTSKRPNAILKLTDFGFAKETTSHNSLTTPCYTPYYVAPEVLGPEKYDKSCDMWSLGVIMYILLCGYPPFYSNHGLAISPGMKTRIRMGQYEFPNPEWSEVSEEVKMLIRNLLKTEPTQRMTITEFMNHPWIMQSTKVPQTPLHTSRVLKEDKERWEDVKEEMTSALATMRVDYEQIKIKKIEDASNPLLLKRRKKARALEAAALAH

PLK1 = biological target: T2, PLK1 (Homo sapiens, UniProt P53350); experiment: Kinase Profiler, residual kinase activity; assay type: biochemical; conditions: read-out: percentage of the remaining kinase activity
T2 construct: purchased Research Biology Corp. (http://www.reactionbiology.com)
T2 sequence (P53350 whole entry): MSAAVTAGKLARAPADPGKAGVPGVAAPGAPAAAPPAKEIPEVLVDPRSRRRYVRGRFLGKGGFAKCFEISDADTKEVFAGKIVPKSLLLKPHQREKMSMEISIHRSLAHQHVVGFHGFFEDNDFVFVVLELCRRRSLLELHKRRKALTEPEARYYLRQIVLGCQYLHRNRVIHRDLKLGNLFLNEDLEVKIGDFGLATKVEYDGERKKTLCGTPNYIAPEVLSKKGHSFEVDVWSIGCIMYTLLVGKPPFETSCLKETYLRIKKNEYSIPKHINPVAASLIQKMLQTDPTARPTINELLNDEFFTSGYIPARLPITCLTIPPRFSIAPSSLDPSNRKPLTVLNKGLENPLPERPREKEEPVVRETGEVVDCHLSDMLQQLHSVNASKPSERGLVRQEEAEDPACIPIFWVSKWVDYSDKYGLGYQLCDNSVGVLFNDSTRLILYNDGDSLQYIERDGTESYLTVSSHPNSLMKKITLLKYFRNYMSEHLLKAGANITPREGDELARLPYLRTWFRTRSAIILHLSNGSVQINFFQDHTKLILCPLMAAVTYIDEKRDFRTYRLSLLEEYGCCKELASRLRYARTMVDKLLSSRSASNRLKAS

RPS6KB1 = biological target: T3, RPS6KB1 (Homo sapiens, UniProt P23443); experiment: Kinase Profiler, residual kinase activity; assay type: biochemical; conditions: read-out: percentage of the remaining kinase activity
T3 construct: purchased Research Biology Corp. (http://www.reactionbiology.com)
T3 sequence (P23443 whole entry): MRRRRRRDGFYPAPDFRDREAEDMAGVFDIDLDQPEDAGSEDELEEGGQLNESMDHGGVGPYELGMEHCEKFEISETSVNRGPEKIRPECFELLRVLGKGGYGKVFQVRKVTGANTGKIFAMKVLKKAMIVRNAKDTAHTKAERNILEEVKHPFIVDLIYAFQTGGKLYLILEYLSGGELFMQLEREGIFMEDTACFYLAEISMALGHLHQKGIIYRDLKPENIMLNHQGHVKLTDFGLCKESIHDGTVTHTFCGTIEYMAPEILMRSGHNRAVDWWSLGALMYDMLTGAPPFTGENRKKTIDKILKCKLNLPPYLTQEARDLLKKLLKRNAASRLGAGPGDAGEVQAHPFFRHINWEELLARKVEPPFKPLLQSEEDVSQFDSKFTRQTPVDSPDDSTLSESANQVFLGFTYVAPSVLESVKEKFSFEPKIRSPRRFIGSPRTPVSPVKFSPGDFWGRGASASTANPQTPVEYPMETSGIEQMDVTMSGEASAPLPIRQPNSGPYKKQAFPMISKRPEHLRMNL

AXL = biological target: T4, AXL (Homo sapiens, UniProt P30530); experiment: Kinase Profiler, residual kinase activity; assay type: biochemical; conditions: read-out: percentage of the remaining kinase activity
T4 construct: purchased Research Biology Corp. (http://www.reactionbiology.com)
T4 sequence (P30530 26-894): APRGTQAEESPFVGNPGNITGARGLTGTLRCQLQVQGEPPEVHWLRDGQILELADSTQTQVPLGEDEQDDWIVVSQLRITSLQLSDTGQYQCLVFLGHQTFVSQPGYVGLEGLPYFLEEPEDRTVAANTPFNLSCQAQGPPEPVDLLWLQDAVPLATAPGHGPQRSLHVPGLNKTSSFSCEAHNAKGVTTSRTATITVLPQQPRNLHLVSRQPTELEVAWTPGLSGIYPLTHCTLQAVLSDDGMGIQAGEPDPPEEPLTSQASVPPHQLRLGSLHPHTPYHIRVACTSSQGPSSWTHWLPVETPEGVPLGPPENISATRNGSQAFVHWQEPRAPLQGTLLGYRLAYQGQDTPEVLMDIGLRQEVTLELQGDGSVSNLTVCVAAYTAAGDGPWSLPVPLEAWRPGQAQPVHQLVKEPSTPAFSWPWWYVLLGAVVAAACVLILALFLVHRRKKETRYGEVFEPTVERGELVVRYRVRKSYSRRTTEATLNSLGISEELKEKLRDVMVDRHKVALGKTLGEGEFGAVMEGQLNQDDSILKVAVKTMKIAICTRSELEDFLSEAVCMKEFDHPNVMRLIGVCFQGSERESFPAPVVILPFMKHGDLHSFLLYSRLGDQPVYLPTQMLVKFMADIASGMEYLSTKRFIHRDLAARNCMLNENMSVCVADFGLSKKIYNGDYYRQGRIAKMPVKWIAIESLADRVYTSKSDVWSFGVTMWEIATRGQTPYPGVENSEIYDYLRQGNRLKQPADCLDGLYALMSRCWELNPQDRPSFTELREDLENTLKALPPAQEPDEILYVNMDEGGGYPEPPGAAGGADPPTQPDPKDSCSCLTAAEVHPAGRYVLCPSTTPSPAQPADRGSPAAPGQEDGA
Method in brief: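 Residual kinase activity came from a commercial kinase profiling service, testing inhibitors across a panel of 40 protein kinases.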

[1] = tested on: 40 types of protein kinases; experiment: Selectivity over the panel of 40 protein kinases; assay type: biochemical; conditions: 500 nM; inhibited = residual kinase activity less than or equal to 50%
From the text: Kinase Profiler services provided by […]. (http://www.reactionbiology.com) were used to analyze the data of the 9 type-S protein kinase inhibitors against the 40 types of protein kinases.

[2] = tested on: gastric cancer cell line MKN-45; experiment: MTT cell survival test on gastric cancer cells; assay type: cell-based; conditions: Homo sapiens; MKN-45, MTT, 24 hours, serum-free media; read-out: IC50 value for inhibiting gastric cancer cell line MKN-45
Description: Gastric cancer cell line MKN-45 was incubated on a 96-well plate (about 1×10^4 cells/well). After the cells adhered, the 96-well plate was replaced with serum-free culture media, and different concentrations (from 40 to 0.039 μM) of drugs were added. After incubating at 37° C. for 24 hours, PBS was used for washing three times, and MTT culture media was added to react with cells. Violet crystals appeared after two hours. Then, DMSO (50 μl) was added to terminate the reaction. A light-absorbing micro-volume spectrophotometer (ELISA reader) was used, and an absorption value of 570 nm was obtained. A blank value was deducted from each of the obtained absorbance values, and then the difference was divided by the value of the control group to calculate a percentage, i.e., a cell survival rate. The experiment was repeated three times to obtain an average value and a standard deviation.

FGFR1, sequence (P11362 22-822): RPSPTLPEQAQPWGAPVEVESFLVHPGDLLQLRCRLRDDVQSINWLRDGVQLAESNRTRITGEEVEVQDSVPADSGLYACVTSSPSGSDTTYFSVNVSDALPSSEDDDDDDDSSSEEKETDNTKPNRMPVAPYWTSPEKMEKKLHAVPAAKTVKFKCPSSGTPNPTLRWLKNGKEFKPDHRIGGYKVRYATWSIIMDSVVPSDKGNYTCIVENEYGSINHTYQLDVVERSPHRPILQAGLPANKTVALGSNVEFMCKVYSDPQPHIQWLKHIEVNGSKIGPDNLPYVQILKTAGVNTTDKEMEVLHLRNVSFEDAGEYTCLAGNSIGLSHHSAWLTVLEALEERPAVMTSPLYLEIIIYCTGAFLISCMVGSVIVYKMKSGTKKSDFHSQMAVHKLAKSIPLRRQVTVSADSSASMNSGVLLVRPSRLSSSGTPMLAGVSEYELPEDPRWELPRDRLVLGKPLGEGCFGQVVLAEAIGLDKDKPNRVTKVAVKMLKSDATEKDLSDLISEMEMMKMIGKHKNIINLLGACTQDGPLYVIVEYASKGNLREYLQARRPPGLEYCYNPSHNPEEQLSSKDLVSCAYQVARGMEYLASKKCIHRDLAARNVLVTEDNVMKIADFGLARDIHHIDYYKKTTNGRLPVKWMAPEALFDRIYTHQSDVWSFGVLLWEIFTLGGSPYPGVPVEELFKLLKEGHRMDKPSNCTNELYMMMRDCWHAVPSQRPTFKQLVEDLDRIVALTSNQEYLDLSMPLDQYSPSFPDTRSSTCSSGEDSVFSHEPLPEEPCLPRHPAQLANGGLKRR

Row | remaining activity at 0.5 µM (FGFR1; FGFR1, inhibitor at 500 nM) [%] | remaining activity at 0.5 µM (CDK2; CDK2, inhibitor at 500 nM) [%] | remaining activity at 0.5 µM (MAPKAPK2; MAPKAPK2, inhibitor at 500 nM) [%] | remaining activity at 0.5 µM (PLK1; PLK1, inhibitor at 500 nM) [%] | remaining activity at 0.5 µM (RPS6KB1; RPS6KB1, inhibitor at 500 nM) [%] | remaining activity at 0.5 µM (AXL; AXL, inhibitor at 500 nM) [%] | SMILES | percentage of the 40 types of protein kinases inhibited [1] [%] | pIC50 [2] | number of types of protein kinases inhibited out of 40 tested [1] | remaining activity at 0.5 µM (FGFR1) [%] | remaining activity at 0.5 µM (CDK2) [%] | remaining activity at 0.5 µM (MAPKAPK2) [%] | remaining activity at 0.5 µM (PLK1) [%] | remaining activity at 0.5 µM (RPS6KB1) [%] | remaining activity at 0.5 µM (AXL) [%]
1 | 5.1 | 16.5 | 73.3 | 93.8 | 7.9 | 35.4 | COC1C(N(C)C(=O)C(N)Cc2c[nH]cn2)CC2OC1(C)n1c3ccccc3c3c4c(c5c6ccccc6n2c5c31)C(=O)NC4 (centres unmarked) [Compound 1] |  |  |  |  |  |  |  |  | 
2 | 53.3 | 57.5 | 108 | 104 | 15.2 | 77.2 | COC1C(N(C)C(=O)C(N)Cc2ccc(OC(C)(C)C)cc2)CC2OC1(C)n1c3ccccc3c3c4c(c5c6ccccc6n2c5c31)C(=O)NC4 (centres unmarked) [Compound 4] | 27.5 | 5.80 | 11 |  |  |  |  |  | 
3 | 16.6 | 56.9 | 95.3 | 99.2 | 11.8 | 60.3 | COC1C(N(C)C(=O)C(N)Cc2ccc(O)cc2)CC2OC1(C)n1c3ccccc3c3c4c(c5c6ccccc6n2c5c31)C(=O)NC4 (centres unmarked) [Compound 5] |  |  |  |  |  |  |  |  | 
4 | 3.2 | 19.3 | 91.8 | 80.9 | 9.2 | 26.8 | COC1C(N(C)C(=O)C(N)CCC(=O)O)CC2OC1(C)n1c3ccccc3c3c4c(c5c6ccccc6n2c5c31)C(=O)NC4 (centres unmarked) [Compound 7] |  |  |  |  |  |  |  |  | 
5 | 25.7 | 8.2 | 92.5 | 95.9 | 11.1 | 37.6 | COC1C(N(C)Cc2ccc(-c3ccccc3)cc2)CC2OC1(C)n1c3ccccc3c3c4c(c5c6ccccc6n2c5c31)C(=O)NC4 (centres unmarked) [Compound 9] |  |  |  |  |  |  |  |  | 

Second part, the compound before the results:

Row | SMILES | remaining activity at 0.5 µM (FGFR1; FGFR1, inhibitor at 500 nM) [%] | remaining activity at 0.5 µM (CDK2; CDK2, inhibitor at 500 nM) [%] | remaining activity at 0.5 µM (MAPKAPK2; MAPKAPK2, inhibitor at 500 nM) [%] | remaining activity at 0.5 µM (PLK1; PLK1, inhibitor at 500 nM) [%] | remaining activity at 0.5 µM (RPS6KB1; RPS6KB1, inhibitor at 500 nM) [%] | remaining activity at 0.5 µM (AXL; AXL, inhibitor at 500 nM) [%] | percentage of the 40 types of protein kinases inhibited [1] [%] | pIC50 [2] | number of types of protein kinases inhibited out of 40 tested [1] | remaining activity at 0.5 µM (FGFR1) [%] | remaining activity at 0.5 µM (CDK2) [%] | remaining activity at 0.5 µM (MAPKAPK2) [%] | remaining activity at 0.5 µM (PLK1) [%] | remaining activity at 0.5 µM (RPS6KB1) [%] | remaining activity at 0.5 µM (AXL) [%]
6 | COC1C(N(C)C(=O)C(N)Cc2cn(C(=O)OC(C)(C)C)c3ccccc23)CC2OC1(C)n1c3ccccc3c3c4c(c5c6ccccc6n2c5c31)C(=O)NC4 (centres unmarked) [Compound 2] | 101 | 76.6 | 106 | 97.9 | 72.4 | 100 | 2.5 |  |  |  |  |  |  |  | 
7 | COC1C(N(C)C(=O)C(N)CCC(=O)OC(C)(C)C)CC2OC1(C)n1c3ccccc3c3c4c(c5c6ccccc6n2c5c31)C(=O)NC4 (centres unmarked) [Compound 6] | 29.5 | 55 | 105 | 104 | 15 | 60.9 |  |  |  |  |  |  |  |  | 
8 | COC1C(N(C)CCOc2cccc([N+](=O)[O-])c2)CC2OC1(C)n1c3ccccc3c3c4c(c5c6ccccc6n2c5c31)C(=O)NC4 (centres unmarked) [Compound 8] |  |  |  |  |  |  |  |  |  | 30.1 | 12.3 | 94.6 | 97.7 | 11.8 | 46.3
9 | CN[C@@H]1C[C@H]2O[C@@](C)([C@@H]1OC)n1c3ccccc3c3c4c(c5c6ccccc6n2c5c31)C(=O)NC4 [STU, staurosporine, reference compound] |  |  |  |  |  |  |  |  |  |  |  |  |  |  | 8.8

Source: patent US9738660B2, “Selective inhibitors for protein kinases and pharmaceutical composition and use thereof” (National Chiao Tung University, priority 2014, dated 2017)
